Source: US8445462B2, “Composition for the treatment of osteoarthritis” (Bioiberica, S.A., priority 2007, dated 2013)
Where a name gives a salt, the structure may show the parent alone.

System: experimental osteoarthritis induced by partial medial meniscectomy in guinea pigs
Experiment: Experimental osteoarthritis induced by partial medial meniscectomy in guinea pigs: chondroprotective activity and modified Mankin histological evaluation
Type: in vivo, Dunkin Hartley (DH) guinea pigs
Settings: CS 95 mg/kg/day, Man 60 mg/kg/day; for average chondroprotective activity (GAGs, cartilage structure, chondrocyte proliferation): oral gavage once a day for 70 days, blank control group 100%, operated control group 0%; for global histopathological score (modified Mankin) with respect to the operated group, result in words: oral, 70 days
Description: The objective was to evaluate the chondroprotective activity (cartilage protective activity) of a composition formed by a mixture of chondroitin sulphate and mannosamine hydrochloride as sole active components, in a model of experimental osteoarthritis induced by partial medial meniscectomy in guinea pigs (A. M. Bendele, Progressive chronic osteoarthritis in femorotibial joints of partial medial meniscectomized guinea pigs, Vet. Pathol. 24, 444-448 (1987)), comparing said activity with the chondroprotective activity of chondroitin sulphate and of mannosamine hydrochloride.
Dunkin Hartley (DH) guinea pigs with a weight comprised between 580 and 699 g were used. A partial medial meniscectomy was performed in a part of them.
The following treatment groups were formed: blank control group (corresponding to healthy guinea pigs), operated control group (corresponding to guinea pigs in which a partial medial meniscectomy was performed to induce an experimental osteoarthritis in them), operated guinea pigs to which the sodium salt of chondroitin sulphate (95 mg/kg of body weight/day) was administered, operated guinea pigs to which mannosamine hydrochloride (60 mg/kg of body weight/day) was administered, operated guinea pigs to which a mixture of sodium salt of chondroitin sulphate (95 mg/kg of body weight/day) and mannosamine hydrochloride (60 mg/kg of body weight/day) was administered.
On the day after the surgery, the daily administration of the corresponding oral treatments by means of gastric gavage was started, the carrier used being water for injection. The blank control and operated control groups only received the carrier (water for injection) by oral route.
The treatments were administered once a day for 70 days (ten weeks). The body weight and the clinical signs of the animals were recorded twice a day. No remarkable clinical signs were observed throughout the treatment period.
On the day after the administration had ended, the animals were sacrificed by anaesthetic overdose (pentobarbital sodium) and the femorotibial joint of the right rear leg was removed for its fixing in 10% formol for at least 48 hours. Then, they were decalcified, included in paraffin, the necessary sections were obtained and the stainings with Hematoxylin-Eosin and Safranin-O-Fast Green (or Toluidine Blue) were performed for their histological evaluation, which was performed by a pathologist in a blind manner.
The severity of the osteoarthritic injuries was evaluated by means of the modified histologic/histochemical scale of Mankin et al. (H J. Mankin and L. Lipiello Biochemical and metabolic abnormalities in articular cartilage from osteoarthritic human hips. J. Bone Joint Surg.-Amer. 53-A, 523-537 (1971)). […]

| Compound | average chondroprotective activity (GAGs, cartilage structure, chondrocyte proliferation) [%] | global histopathological score (modified Mankin) with respect to the operated group, result in words |
| --- | --- | --- |
| N[C@@H]1C(O)O[C@H](CO)[C@@H](O)[C@@H]1O (stereo partly drawn) [mannosamine hydrochloride, 2-amino-2-deoxy-D-mannose] | −21 | no statistically significant differences |
| chondroitin sulphate | 12 | improvement with respect to the operated group, but without statistical significance |
